Results: ChEMBL document CHEMBL1157764, “Conserved high activity binding peptides are involved in adhesion of two detergent-resistant membrane-associated merozoite proteins to red blood cells during invasion” (J Med Chem, 2010)
Where a SMILES comes first, the peptide text is derived from it. [ ]: non-standard residue; d: D form. Ahp(2) = CCCCC[C@H](N)C(=O)O

Test system: Plasmodium falciparum
Test: Antiplasmodial activity against Plasmodium falciparum FCB2 assessed as inhibition of merozoite invasion of human RBCs at 100 uM after 18 hrs using hydroethidine staining by flow cytometry
Format: functional
Details: FCB2, 18 h

Row | Molecule | inhibition at 100 µM [%]
1 | CC[C@H](C)[C@H](NC(=O)[C@H](CCCCN)NC(=O)CNC(=O)CNC(=O)[C@H](Cc1ccc(O)cc1)NC(=O)[C@H](CC(=O)O)NC(=O)[C@H](CO)NC(=O)[C@H](CC(C)C)NC(=O)[C@@H](N)CCCNC(=N)N)C(=O)N[C@@H](CC(C)C)C(=O)N[C@H](C(=O)N[C@@H](CCCCN)C(=O)NCC(=O)N[C@H](C(=O)N[C@@H](CC(N)=O)C(=O)N[C@@H](C)C(=O)N[C@@H](CCC(N)=O)C(=O)N[C@@H](CC(N)=O)C(=O)N[C@H](C(=O)N[C@@H](CC(C)C)C(=O)O)[C@H](C)O)[C@@H](C)O)C(C)C | 34

Test system: Plasmodium falciparum
Test: Antiplasmodial activity against Plasmodium falciparum FCB2 assessed as inhibition of merozoite invasion of human RBCs at 200 uM after 18 hrs using hydroethidine staining by flow cytometry
Format: functional
Details: FCB2, 18 h

Row | Molecule | inhibition at 200 µM [%]
2 | CC[C@H](C)[C@H](NC(=O)[C@H](CCCCN)NC(=O)CNC(=O)CNC(=O)[C@H](Cc1ccc(O)cc1)NC(=O)[C@H](CC(=O)O)NC(=O)[C@H](CO)NC(=O)[C@H](CC(C)C)NC(=O)[C@@H](N)CCCNC(=N)N)C(=O)N[C@@H](CC(C)C)C(=O)N[C@H](C(=O)N[C@@H](CCCCN)C(=O)NCC(=O)N[C@H](C(=O)N[C@@H](CC(N)=O)C(=O)N[C@@H](C)C(=O)N[C@@H](CCC(N)=O)C(=O)N[C@@H](CC(N)=O)C(=O)N[C@H](C(=O)N[C@@H](CC(C)C)C(=O)O)[C@H](C)O)[C@@H](C)O)C(C)C | 9

Species: Homo sapiens
Test: Binding affinity to RBC membrane receptor in 1 mg/mL chymotrypsin pretreated human RBCs relative to untreated RBCs
Details: not given

Row | Activity [%] | Molecule
3 | 79 | CC[C@H](C)[C@H](NC(=O)[C@H](CCCCN)NC(=O)CNC(=O)CNC(=O)[C@H](Cc1ccc(O)cc1)NC(=O)[C@H](CC(=O)O)NC(=O)[C@H](CO)NC(=O)[C@H](CC(C)C)NC(=O)[C@@H](N)CCCNC(=N)N)C(=O)N[C@@H](CC(C)C)C(=O)N[C@H](C(=O)N[C@@H](CCCCN)C(=O)NCC(=O)N[C@H](C(=O)N[C@@H](CC(N)=O)C(=O)N[C@@H](C)C(=O)N[C@@H](CCC(N)=O)C(=O)N[C@@H](CC(N)=O)C(=O)N[C@H](C(=O)N[C@@H](CC(C)C)C(=O)O)[C@H](C)O)[C@@H](C)O)C(C)C

Species: Homo sapiens
Test: Binding affinity to RBC membrane receptor in 150 uU/mL neuraminidase pretreated human RBCs relative to untreated RBCs
Details: not given

Row | Activity [%] | Molecule
4 | 67 | CC[C@H](C)[C@H](NC(=O)[C@H](CCCCN)NC(=O)CNC(=O)CNC(=O)[C@H](Cc1ccc(O)cc1)NC(=O)[C@H](CC(=O)O)NC(=O)[C@H](CO)NC(=O)[C@H](CC(C)C)NC(=O)[C@@H](N)CCCNC(=N)N)C(=O)N[C@@H](CC(C)C)C(=O)N[C@H](C(=O)N[C@@H](CCCCN)C(=O)NCC(=O)N[C@H](C(=O)N[C@@H](CC(N)=O)C(=O)N[C@@H](C)C(=O)N[C@@H](CCC(N)=O)C(=O)N[C@@H](CC(N)=O)C(=O)N[C@H](C(=O)N[C@@H](CC(C)C)C(=O)O)[C@H](C)O)[C@@H](C)O)C(C)C

Species: Homo sapiens
Test: Binding affinity to RBC membrane receptor in 1 mg/mL trypsin pretreated human RBCs relative to untreated RBCs
Details: not given

Row | Activity [%] | Molecule
5 | 11 | CC[C@H](C)[C@H](NC(=O)[C@H](CCCCN)NC(=O)CNC(=O)CNC(=O)[C@H](Cc1ccc(O)cc1)NC(=O)[C@H](CC(=O)O)NC(=O)[C@H](CO)NC(=O)[C@H](CC(C)C)NC(=O)[C@@H](N)CCCNC(=N)N)C(=O)N[C@@H](CC(C)C)C(=O)N[C@H](C(=O)N[C@@H](CCCCN)C(=O)NCC(=O)N[C@H](C(=O)N[C@@H](CC(N)=O)C(=O)N[C@@H](C)C(=O)N[C@@H](CCC(N)=O)C(=O)N[C@@H](CC(N)=O)C(=O)N[C@H](C(=O)N[C@@H](CC(C)C)C(=O)O)[C@H](C)O)[C@@H](C)O)C(C)C

Species: Homo sapiens
Test: Binding affinity to RBC membrane receptor in human RBCs assessed as specific binding activity measured as ratio of specifically bound peptide/added peptide by gamma counter
Details: not given

Row | Activity [%] | Molecule
6 | > 2 | CC[C@H](C)[C@H](NC(=O)[C@H](CCCCN)NC(=O)CNC(=O)CNC(=O)[C@H](Cc1ccc(O)cc1)NC(=O)[C@H](CC(=O)O)NC(=O)[C@H](CO)NC(=O)[C@H](CC(C)C)NC(=O)[C@@H](N)CCCNC(=N)N)C(=O)N[C@@H](CC(C)C)C(=O)N[C@H](C(=O)N[C@@H](CCCCN)C(=O)NCC(=O)N[C@H](C(=O)N[C@@H](CC(N)=O)C(=O)N[C@@H](C)C(=O)N[C@@H](CCC(N)=O)C(=O)N[C@@H](CC(N)=O)C(=O)N[C@H](C(=O)N[C@@H](CC(C)C)C(=O)O)[C@H](C)O)[C@@H](C)O)C(C)C
7 | < 2 | CC[C@H](C)[C@H](NC(=O)[C@H](CC(=O)O)NC(=O)[C@H](CC(N)=O)NC(=O)[C@H](CC(N)=O)NC(=O)[C@@H](N)CCC(N)=O)C(=O)N[C@@H](CC(=O)O)C(=O)N[C@@H](Cc1cnc[nH]1)C(=O)N[C@@H](CO)C(=O)N[C@@H](CCC(=O)O)C(=O)N[C@@H](CC(=O)O)C(=O)N[C@@H](CCCCN)C(=O)N[C@@H](CCCCN)C(=O)N[C@@H](CC(C)C)C(=O)N[C@H](C(=O)N[C@@H](CO)C(=O)N[C@@H](CCCNC(=N)N)C(=O)N[C@H](C(=O)N[C@@H](CC(C)C)C(=O)N[C@@H](Cc1ccc(O)cc1)C(=O)N[C@@H](Cc1ccc(O)cc1)C(=O)O)C(C)C)[C@@H](C)CC
8 | > 2 | CC[C@H](C)[C@H](NC(=O)[C@H](CO)NC(=O)[C@H](CCCCN)NC(=O)[C@@H](N)CC(=O)O)C(=O)N[C@H](C(=O)N[C@@H](Cc1cnc[nH]1)C(=O)N[C@@H](Cc1ccccc1)C(=O)N[C@@H](Cc1ccc(O)cc1)C(=O)N[C@@H](CS)C(=O)N[C@@H](CCC(=O)O)C(=O)N[C@@H](CS)C(=O)N[C@@H](CC(N)=O)C(=O)N[C@H](C(=O)N[C@@H](CC(N)=O)C(=O)N[C@@H](CC(N)=O)C(=O)N[C@@H](CC(N)=O)C(=O)N[C@H](C(=O)N[C@H](C(=O)N[C@@H](CCCCN)C(=O)N[C@H](C(=O)O)C(C)C)[C@@H](C)CC)C(C)C)C(C)C)[C@@H](C)CC (H-DKSIIHFYCECNVNNNVIKV-OH)
9 | > 2 | CC[C@H](C)[C@H](NC(=O)[C@H](Cc1ccc(O)cc1)NC(=O)[C@H](CS)NC(=O)[C@@H]1CCCN1C(=O)[C@H](CC(=O)O)NC(=O)[C@@H](N)CCC(=O)O)C(=O)N[C@@H](CC(N)=O)C(=O)N[C@@H](CC(N)=O)C(=O)N[C@@H](CO)C(=O)N[C@@H](Cc1ccc(O)cc1)C(=O)N[C@H](C(=O)N[C@@H](CO)C(=O)N[C@H](C(=O)N[C@@H](CC(N)=O)C(=O)N[C@H](C(=O)N[C@H](C(=O)N[C@@H](CS)C(=O)N[C@@H](CC(N)=O)C(=O)N[C@@H](CCCCN)C(=O)N[C@@H](CCC(=O)O)C(=O)O)C(C)C)C(C)C)C(C)C)C(C)C (H-EDPCYINNSYVSVNVVCNKE-OH)
10 | > 2 | CC[C@H](C)[C@H](NC(=O)[C@@H](N)CCC(=O)O)C(=O)N[C@@H](CO)C(=O)N[C@@H](CCC(=O)O)C(=O)N[C@@H](CS)C(=O)N[C@H](C(=O)N[C@@H](CCC(=O)O)C(=O)N[C@@H](CO)C(=O)N[C@@H](CCC(=O)O)C(=O)N[C@@H](CCC(N)=O)C(=O)N[C@@H](CC(N)=O)C(=O)N[C@@H](CCC(=O)O)C(=O)N[C@H](C(=O)N[C@@H](CCCCN)C(=O)N[C@H](C(=O)N[C@@H](CO)C(=O)N[C@H](C(=O)N[C@H](C(=O)N[C@@H](CS)C(=O)N[C@@H](CC(C)C)C(=O)N[C@@H](Cc1ccc(O)cc1)C(=O)O)[C@@H](C)O)[C@@H](C)O)[C@@H](C)O)C(C)C)C(C)C (H-EISECVESEQNEVKTSTTCLY-OH)
11 | > 2 | CC[C@H](C)[C@H](NC(=O)[C@H](Cc1ccc(O)cc1)NC(=O)[C@H](CCC(=O)O)NC(=O)[C@H](CO)NC(=O)[C@@H](NC(=O)[C@H](CC(=O)O)NC(=O)[C@H](CCCCN)NC(=O)[C@H](CC(C)C)NC(=O)[C@H](CCCCN)NC(=O)[C@@H](NC(=O)[C@H](CCC(=O)O)NC(=O)[C@H](CS)NC(=O)[C@H](Cc1ccccc1)NC(=O)[C@@H]1CCCN1C(=O)[C@H](CO)NC(=O)[C@@H](N)Cc1cnc[nH]1)[C@@H](C)CC)[C@@H](C)CC)C(=O)N[C@@H](CCCNC(=N)N)C(=O)N[C@@H](CCCCN)C(=O)N[C@@H](CCCCN)C(=O)N[C@@H](CS)C(=O)O (H-HSPFCEIKLKDISEYIRKKC-OH)
12 | > 2 | CC[C@H](C)[C@H](N)C(=O)N[C@@H](Cc1cnc[nH]1)C(=O)N[C@@H](CCCCN)C(=O)N[C@@H](CCCNC(=N)N)C(=O)N[C@@H](CS)C(=O)N[C@@H](CC(N)=O)C(=O)N[C@@H](CC(=O)O)C(=O)N[C@@H](CC(=O)O)C(=O)N[C@H](C(=O)N[C@@H](CCC(=O)O)C(=O)N[C@@H](CCCCN)C(=O)N[C@@H](CCCCN)C(=O)N[C@@H](CS)C(=O)N[C@@H](CC(N)=O)C(=O)NCC(=O)N[C@@H](CC(N)=O)C(=O)N[C@@H](CC(N)=O)C(=O)N[C@@H](CCCCN)C(=O)N[C@@H](CS)C(=O)N[C@H](C(=O)N[C@@H](Cc1ccc(O)cc1)C(=O)O)[C@@H](C)CC)[C@@H](C)CC (H-IHKRCNDDIEKKCNGNNKCIY-OH)
13 | > 2 | CC[C@H](C)[C@H](NC(=O)[C@H](CCC(=O)O)NC(=O)[C@H](CC(N)=O)NC(=O)[C@H](CC(N)=O)NC(=O)CNC(=O)[C@H](CC(N)=O)NC(=O)[C@H](CC(C)C)NC(=O)[C@H](CS)NC(=O)[C@H](CCC(N)=O)NC(=O)[C@@H](NC(=O)[C@H](CCC(=O)O)NC(=O)[C@H](CS)NC(=O)[C@H](Cc1cnc[nH]1)NC(=O)[C@H](CC(C)C)NC(=O)[C@@H](NC(=O)[C@H](Cc1ccc(O)cc1)NC(=O)[C@H](CC(C)C)NC(=O)[C@H](CC(N)=O)NC(=O)CNC(=O)[C@@H](N)CCC(N)=O)C(C)C)C(C)C)C(=O)O (H-QGNLYVLHCEVQCLNGNNEI-OH)
14 | > 2 | CCCCC[C@H](NC(=O)[C@H](Cc1ccc(O)cc1)NC(=O)[C@@H](NC(=O)[C@H](CCCNC(=N)N)NC(=O)[C@H](CCCNC(=N)N)NC(=O)[C@H](CCC(N)=O)NC(=O)[C@@H]1CCCN1C(=O)[C@@H](NC(=O)[C@@H](NC(=O)[C@H](Cc1ccccc1)NC(=O)[C@@H](NC(=O)[C@H](CC(=O)O)NC(=O)[C@H](CC(N)=O)NC(=O)[C@H](CCC(=O)O)NC(=O)CNC(=O)[C@H](Cc1ccccc1)NC(=O)[C@H](CC(C)C)NC(=O)[C@@H](N)Cc1ccc(O)cc1)[C@@H](C)CC)C(C)C)C(C)C)[C@@H](C)CC)C(=O)N[C@H](C(=O)N[C@@H](CCC(=O)O)C(=O)O)[C@@H](C)O (H-YLFGENDIFVVPQRRIY[Ahp(2)]TE-OH)
15 | > 2 | H-DEKHAENEENVEQIETDSNVY-OH
16 | > 2 | H-DEVFGSQSSNFNIFDSNNTDY-OH
17 | > 2 | H-DGLNCFDNVYIKNKTLVKIE-OH
18 | > 2 | H-EDGEKENKHKSSETTNETVTY-OH

Target: not listed separately
Test: Binding affinity to RBC membrane receptor in human RBCs assessed as dissociation constant by gamma counter
Details: not given

Row | Kd [nM] | Molecule
19 | 900 | CC[C@H](C)[C@H](NC(=O)[C@H](CCCCN)NC(=O)CNC(=O)CNC(=O)[C@H](Cc1ccc(O)cc1)NC(=O)[C@H](CC(=O)O)NC(=O)[C@H](CO)NC(=O)[C@H](CC(C)C)NC(=O)[C@@H](N)CCCNC(=N)N)C(=O)N[C@@H](CC(C)C)C(=O)N[C@H](C(=O)N[C@@H](CCCCN)C(=O)NCC(=O)N[C@H](C(=O)N[C@@H](CC(N)=O)C(=O)N[C@@H](C)C(=O)N[C@@H](CCC(N)=O)C(=O)N[C@@H](CC(N)=O)C(=O)N[C@H](C(=O)N[C@@H](CC(C)C)C(=O)O)[C@H](C)O)[C@@H](C)O)C(C)C
